From the supplement of paper PMC9663587

Legend:
MDAMB231 = test: GRmax, 72 h; higher = less effect;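 note: breast cell lines in 384-well plates, nine doses across a 10^4 range, Dye Drop imaging of viable cells vs DMSO and time-zero plates, GR 0 means no net growth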
SUM159 = test: GRmax, 72 h; higher = less effect;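 note: breast cell lines in 384-well plates, nine doses across a 10^4 range, Dye Drop imaging of viable cells vs DMSO and time-zero plates, GR 0 means no net growth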
SUM229PE = test: GRmax, 72 h; higher = less effect;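 note: breast cell lines in 384-well plates, nine doses across a 10^4 range, Dye Drop imaging of viable cells vs DMSO and time-zero plates, GR 0 means no net growth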
CAL51 = test: area over the GR curve, 72 h; higher = more effect;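 note: Dye Drop or Deep Dye Drop imaging of viable cells in 384-well plates (Hoechst nuclei, LIVE/DEAD dye), nine half-log doses, GR normalized to DMSO controls and time-zero plates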
CAMA1 = test: area over the GR curve, 72 h; higher = more effect;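 note: Dye Drop or Deep Dye Drop imaging of viable cells in 384-well plates (Hoechst nuclei, LIVE/DEAD dye), nine half-log doses, GR normalized to DMSO controls and time-zero plates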
HCC1954 = test: area over the GR curve, 72 h; higher = more effect;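 note: Dye Drop or Deep Dye Drop imaging of viable cells in 384-well plates (Hoechst nuclei, LIVE/DEAD dye), nine half-log doses, GR normalized to DMSO controls and time-zero plates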
HCC38 = test: area over the GR curve, 72 h; higher = more effect;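 note: Dye Drop or Deep Dye Drop imaging of viable cells in 384-well plates (Hoechst nuclei, LIVE/DEAD dye), nine half-log doses, GR normalized to DMSO controls and time-zero plates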
HTERT_HME1 = test: area over the GR curve, 72 h; higher = more effect
MDAMB175VII = test: area over the GR curve, 72 h; higher = more effect
MGH312 = test: area over the GR curve, 72 h; higher = more effect
SUM52PE = test: area over the GR curve, 72 h; higher = more effect
ZR751 = test: area over the GR curve, 72 h; higher = more effect
ZR7530 = test: area over the GR curve, 72 h; higher = more effect

SMILES	GRmax, 72 h (MDAMB231) [GR]	GRmax, 72 h (SUM159) [GR]	GRmax, 72 h (SUM229PE) [GR]	area over the GR curve (CAL51) [GR]	area over the GR curve (CAMA1) [GR]	area over the GR curve (HCC1954) [GR]	area over the GR curve (HCC38) [GR]	area over the GR curve (HTERT_HME1) [GR]	area over the GR curve (MDAMB175VII) [GR]	area over the GR curve (MGH312) [GR]	area over the GR curve (SUM52PE) [GR]	area over the GR curve (ZR751) [GR]	area over the GR curve (ZR7530) [GR]
CCc1cncnc1N1CCN(Cc2nc3ccc(C(F)(F)F)cc3[nH]2)CC1 (max 10 µM)	0.854	0.846	0.743	0.0491	0.0582	-0.0456	-0.0304	0.117	0.314	-0.0701	0.0787	-0.0587	0.0942
CN(C)CC[C@H](CSc1ccccc1)Nc1ccc(S(=O)(=O)NC(=O)c2ccc(N3CCN(Cc4ccccc4-c4ccc(Cl)cc4)CC3)cc2)cc1[N+](=O)[O-] [ABT-737] (max 10 µM)	-0.12	0.781	0.418	0.0125	0.0008	0.027	0.296	0.081	0.0499	0.224	0.0757	0.0133	-0.0351
C=CCn1c(=O)c2cnc(Nc3ccc(N4CCN(C)CC4)cc3)nc2n1-c1cccc(C(C)(C)O)n1 [AZD1775] (max 10 µM)	-0.282	-0.152	-0.259	0.461	0.0364	0.295	0.961	0.441	0.587	0.334	0.158	0.143	0.322
CNC(=O)c1cccc(-c2ccc3c(N4CCOC[C@@H]4C)nc(N4CCOC[C@@H]4C)nc3n2)c1 [AZD2014] (max 10 µM)	0.241	0.113	0.338	0.485	0.873	0.568	0.418	0.601	1.35	1.39	0.682	0.8	0.749
NC1(C(=O)N[C@@H](CCO)c2ccc(Cl)cc2)CCN(c2nc[nH]c3nccc2-3)CC1 [AZD5363] (max 10 µM)	1.05	0.444	0.516	0.161	0.583	0.23	0.0939	0.188	0.622	1.44	0.196	0.0911	0.393
C[C@@H]1COCCN1c1cc(C2([S@](C)(=N)=O)CC2)nc(-c2cc[nH]c3nccc2-3)n1 [AZD6738] (max 10 µM)	0.354	0.497	-0.0688	0.103	-0.0516	-0.0136	0.247	-0.0027	0.063	-0.22	0.0121	0.03	-0.0333
NC(=O)Nc1cc(-c2cccc(F)c2)sc1C(=O)N[C@H]1CCCNC1 [AZD7762] (max 10 µM)	-0.463	-0.278	-0.357	0.714	0.418	0.515	0.916	0.435	0.816	0.469	0.634	0.201	0.199
Cc1nc(NC(=O)N2CCC[C@H]2C(N)=O)sc1-c1ccnc(C(C)(C)C(F)(F)F)c1 [Alpelisib/BYL719] (max 10 µM)	0.69	0.602	0.523	0.149	0.0106	0.264	0.0391	0.112	0.563	-0.015	0.19	0.0495	0.351
CN(C)C/C=C/C(=O)Nc1ccc(O[C@@H]2CCC[C@@H](Nc3ncc(Cl)c(-c4c[nH]c5ccccc45)n3)C2)cc1 [BSJ-01-175] (max 10 µM)	-0.562	-0.473	-0.77	0.434	0.68	0.66	0.603	0.955	1.21	1.47	0.618	0.189	0.989
CC(=O)c1c(C)c2cnc(Nc3ccc(N4CCN(CCOCCOCCOCCNC(=O)COc5cccc6c5C(=O)N(C5CCC(=O)NC5=O)C6=O)CC4)cn3)nc2n(C2CCCC2)c1=O (stereo not given) [BSJ-03-123] (max 10 µM)	-0.181	-0.042	0.132	0.187	0.658	0.33	0.566	0.422	0.446	0.129	0.219	0.267	0.387
CC(C)Nc1cc(-c2c[nH]c(C(=O)N[C@H](CO)c3cccc(Cl)c3)c2)c(Cl)cn1 [BVD523] (max 10 µM)	0.213	0.156	0.265	0.0561	0.241	0.242	0.237	0.443	0.472	-0.0209	0.129	0.122	0.08
Nc1cc(C(F)(F)F)c(-c2cc(N3CCOCC3)nc(N3CCOCC3)n2)cn1 [Buparlisib/NVP-BKM120] (max 10 µM)	-0.235	-0.279	-0.285	0.328	0.353	0.39	0.254	0.243	0.705	0.506	0.338	0.256	0.371
COc1cc2nccc(Oc3ccc(NC(=O)C4(C(=O)Nc5ccc(F)cc5)CC4)cc3)c2cc1OC [Cabozantinib] (max 10 µM)	0.0749	0.257	0.199	0.0598	0.0239	-0.0867	0.0283	0.0866	-0.124	-0.0125	0.249	-0.0852	0.174
COc1cc2c(Oc3ccc4[nH]c(C)cc4c3F)ncnc2cc1OCCCN1CCCC1 [Cediranib/AZD2171] (max 10 µM)	-0.362	0.518	0.18	0.171	0.109	0.0591	0.202	-0.0207	0.193	-0.0345	0.379	0.019	0.0237
Cc1cc(Nc2ncc(Cl)c(Nc3ccccc3S(=O)(=O)C(C)C)n2)c(OC(C)C)cc1C1CCNCC1 [Ceritinib/LDK378] (max 10 µM)	-0.333	-0.487	0.336	0.417	0.236	0.124	0.208	0.286	-0.0348	0.001	0.0274	0.16	0.0423
